Test results from PubChem BioAssay AID1963865 (Molecular Pharmacology Branch, DTP, NCI, 2024).

Tested on: KRAS PDC multicell spheroid viability
Experiment: Anticancer human tumor 825966-067-R-J1-PDC patient-derived colon carcinoma cell line growth inhibition [KRAS2]
Settings: for IC50: curve of first compound; for viability, T/C: stronger effect = lower value
Summary of the method: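 KRAS-mutant tumor cells were grown as spheroids with HUVEC endothelial cells and human MSCs as stroma. Targeted agents were tested alone and with KRAS pathway inhibitors. Doses started at or near clinical Cmax, or 10 microM, descending half-log.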

[1] = second compound 0.1 µM, first compound 0.0316 µM
[2] = second compound 0.1 µM, first compound 0.1 µM
[3] = second compound 0.1 µM, first compound 0.316 µM
[4] = second compound 0.1 µM, first compound 1 µM
[5] = second compound 0.1 µM, first compound 3.16 µM
[6] = second compound 0.1 µM, first compound 10 µM
[7] = second compound 0.316 µM, first compound 0.0316 µM
[8] = second compound 0.316 µM, first compound 0.1 µM
[9] = second compound 0.316 µM, first compound 0.316 µM
[10] = second compound 0.316 µM, first compound 1 µM
[11] = second compound 0.316 µM, first compound 3.16 µM
[12] = second compound 0.316 µM, first compound 10 µM
[13] = second compound 1 µM, first compound 0.0316 µM
[14] = second compound 1 µM, first compound 0.1 µM
[15] = second compound 1 µM, first compound 0.316 µM
[16] = second compound 1 µM, first compound 1 µM
[17] = second compound 1 µM, first compound 3.16 µM
[18] = second compound 1 µM, first compound 10 µM
[19] = second compound 3.16 µM, first compound 0.0316 µM
[20] = second compound 3.16 µM, first compound 0.1 µM
[21] = second compound 3.16 µM, first compound 0.316 µM
[22] = second compound 3.16 µM, first compound 1 µM
[23] = second compound 3.16 µM, first compound 3.16 µM
[24] = second compound 3.16 µM, first compound 10 µM
[25] = second compound 10 µM, first compound 0.0316 µM
[26] = second compound 10 µM, first compound 0.1 µM
[27] = second compound 10 µM, first compound 0.316 µM
[28] = second compound 10 µM, first compound 1 µM
[29] = second compound 10 µM, first compound 3.16 µM
[30] = second compound 10 µM, first compound 10 µM
[31] = second compound 0.1 µM, first compound 0.000316 µM
[32] = second compound 0.1 µM, first compound 0.001 µM
[33] = second compound 0.1 µM, first compound 0.00316 µM
[34] = second compound 0.1 µM, first compound 0.01 µM
[35] = second compound 0.316 µM, first compound 0.000316 µM
[36] = second compound 0.316 µM, first compound 0.001 µM
[37] = second compound 0.316 µM, first compound 0.00316 µM
[38] = second compound 0.316 µM, first compound 0.01 µM
[39] = second compound 1 µM, first compound 0.000316 µM
[40] = second compound 1 µM, first compound 0.001 µM
[41] = second compound 1 µM, first compound 0.00316 µM
[42] = second compound 1 µM, first compound 0.01 µM
[43] = second compound 3.16 µM, first compound 0.000316 µM
[44] = second compound 3.16 µM, first compound 0.001 µM
[45] = second compound 3.16 µM, first compound 0.00316 µM
[46] = second compound 3.16 µM, first compound 0.01 µM
[47] = second compound 10 µM, first compound 0.000316 µM
[48] = second compound 10 µM, first compound 0.001 µM
[49] = second compound 10 µM, first compound 0.00316 µM
[50] = second compound 10 µM, first compound 0.01 µM
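Also: spheroids exposed to compounds for 7 days.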
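For viability, T/C in this document: 100% = DMSO vehicle control viability.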

SMILES	IC50 (second compound 0.1 µM) [nM]	IC50 (second compound 0.316 µM) [nM]	IC50 (second compound 1 µM) [nM]	IC50 (second compound 3.16 µM) [nM]	IC50 (second compound 10 µM) [nM]	viability, T/C [1] [%]	viability, T/C [2] [%]	viability, T/C [3] [%]	viability, T/C [4] [%]	viability, T/C [5] [%]	viability, T/C [6] [%]	viability, T/C [7] [%]	viability, T/C [8] [%]	viability, T/C [9] [%]	viability, T/C [13] [%]	viability, T/C [14] [%]	viability, T/C [19] [%]	viability, T/C [20] [%]	viability, T/C [25] [%]	viability, T/C [26] [%]	also measured
CC(C)NCC(C(=O)N1CCN(c2ncnc3c2C(C)CC3O)CC1)c1ccc(Cl)cc1 (stereo not given) + CC1OCC2(CCN(c3cnc(Sc4ccnc(N)c4Cl)c(N)n3)CC2)C1N	4490	4130	2550	1420	35.8	73.2	97.8	129	87.9	67.5	11.6	86.3	121	145	92.9	102	102	107	53.1	29.5	viability, T/C [10]: 122%; viability, T/C [11]: 60.6%; viability, T/C [12]: 14.5%; viability, T/C [15]: 133%; viability, T/C [16]: 112%; viability, T/C [17]: 36.2%; viability, T/C [18]: 12.1%; viability, T/C [21]: 137%; viability, T/C [22]: 67.7%; viability, T/C [23]: 13.4%; viability, T/C [24]: 5.28%; viability, T/C [27]: 21.9%; viability, T/C [28]: 6.39%; viability, T/C [29]: 4.52%; viability, T/C [30]: 4.31%
CC(C)n1nc(-c2ccc3oc(N)nc3c2)c2c(N)ncnc21 + CC1OCC2(CCN(c3cnc(Sc4ccnc(N)c4Cl)c(N)n3)CC2)C1N	> 100	> 100	> 100	> 100	< 0.316	132	138	–	–	–	–	132	109	–	140	84.8	127	81.2	61.5	24.8	viability, T/C [31]: 89.9%; viability, T/C [32]: 93.2%; viability, T/C [33]: 133%; viability, T/C [34]: 162%; viability, T/C [35]: 101%; viability, T/C [36]: 115%; viability, T/C [37]: 133%; viability, T/C [38]: 166%; viability, T/C [39]: 115%; viability, T/C [40]: 111%; viability, T/C [41]: 162%; viability, T/C [42]: 170%; viability, T/C [43]: 125%; viability, T/C [44]: 129%; viability, T/C [45]: 140%; viability, T/C [46]: 123%; viability, T/C [47]: 30.2%; viability, T/C [48]: 62.6%; viability, T/C [49]: 32.7%; viability, T/C [50]: 30.8%
CC1(C)CCC(CN2CCN(c3ccc(C(=O)NS(=O)(=O)c4ccc(NCC5CCOCC5)c([N+](=O)[O-])c4)c(Oc4cnc5[nH]ccc5c4)c3)CC2)=C(c2ccc(Cl)cc2)C1 + CC1OCC2(CCN(c3cnc(Sc4ccnc(N)c4Cl)c(N)n3)CC2)C1N	2220	2230	2140	2360	1970	103	88.4	116	114	25.6	11.1	102	104	119	99	110	122	126	69	78.2	viability, T/C [10]: 96.9%; viability, T/C [11]: 29.6%; viability, T/C [12]: 3.21%; viability, T/C [15]: 119%; viability, T/C [16]: 110%; viability, T/C [17]: 19.3%; viability, T/C [18]: 4.73%; viability, T/C [21]: 111%; viability, T/C [22]: 119%; viability, T/C [23]: 26.6%; viability, T/C [24]: 4.06%; viability, T/C [27]: 131%; viability, T/C [28]: 141%; viability, T/C [29]: 11.5%; viability, T/C [30]: 2%
COc1cc(Nc2ncc3c(n2)-c2ccc(Cl)cc2C(c2c(F)cccc2OC)=NC3)ccc1C(=O)O + CC1OCC2(CCN(c3cnc(Sc4ccnc(N)c4Cl)c(N)n3)CC2)C1N	> 10000	> 10000	> 10000	> 10000	< 31.6	132	144	125	154	154	135	127	111	147	129	145	64.6	127	14.9	10.9	viability, T/C [10]: 143%; viability, T/C [11]: 154%; viability, T/C [12]: 133%; viability, T/C [15]: 141%; viability, T/C [16]: 122%; viability, T/C [17]: 119%; viability, T/C [18]: 103%; viability, T/C [21]: 107%; viability, T/C [22]: 74.1%; viability, T/C [23]: 101%; viability, T/C [24]: 123%; viability, T/C [27]: 22%; viability, T/C [28]: 20.2%; viability, T/C [29]: 18.5%; viability, T/C [30]: 39.6%
COc1cc2nccc(Oc3ccc(NC(=O)C4(C(=O)Nc5ccc(F)cc5)CC4)cc3)c2cc1OC + CC1OCC2(CCN(c3cnc(Sc4ccnc(N)c4Cl)c(N)n3)CC2)C1N	1610	1710	1690	1610	< 31.6	89.8	105	94.7	79.9	7.16	8.74	97	102	85.8	109	98.1	83.5	87	45.5	48.5	viability, T/C [10]: 87.1%; viability, T/C [11]: 5.92%; viability, T/C [12]: 10%; viability, T/C [15]: 78.6%; viability, T/C [16]: 85.7%; viability, T/C [17]: 7.28%; viability, T/C [18]: 5.65%; viability, T/C [21]: 90.3%; viability, T/C [22]: 81.6%; viability, T/C [23]: 4.94%; viability, T/C [24]: 4.14%; viability, T/C [27]: 43.4%; viability, T/C [28]: 23.1%; viability, T/C [29]: 1.1%; viability, T/C [30]: 0.8%
Cn1ncnc1[C@H]1c2n[nH]c(=O)c3cc(F)cc(c23)N[C@@H]1c1ccc(F)cc1 + CC1OCC2(CCN(c3cnc(Sc4ccnc(N)c4Cl)c(N)n3)CC2)C1N	> 100	> 100	> 100	> 100	< 0.316	74.8	64.7	–	–	–	–	89.6	69.7	–	78.5	79.6	87.1	85	37.2	18.1	viability, T/C [31]: 109%; viability, T/C [32]: 82%; viability, T/C [33]: 85.6%; viability, T/C [34]: 71.5%; viability, T/C [35]: 110%; viability, T/C [36]: 99.8%; viability, T/C [37]: 103%; viability, T/C [38]: 106%; viability, T/C [39]: 87%; viability, T/C [40]: 109%; viability, T/C [41]: 80%; viability, T/C [42]: 104%; viability, T/C [43]: 93.3%; viability, T/C [44]: 80.7%; viability, T/C [45]: 86.8%; viability, T/C [46]: 80%; viability, T/C [47]: 55.1%; viability, T/C [48]: 18.3%; viability, T/C [49]: 31.5%; viability, T/C [50]: 43.9%
